Results reported in ChEMBL document CHEMBL4177721, “Synthesis, antitumor activity, and cytotoxicity of 4-substituted 1-benzyl-5-diphenylstibano-1H-1,2,3-triazoles” (Bioorg Med Chem Lett, 2018).
Activity calls are given as the source filed them. No cut-off for these calls is given here.

Key:
[1] = Cytotoxicity against bovine aorta vascular endothelial cells assessed as reduction in cell viability incubated for 24 hrs by MTT assay; assay type: cell-based, Bos taurus; details: cattle
HL-60 [2] = experiment: Antitumor activity against human HL60 cells incubated for 72 hrs by MTT assay; assay type: functional, cell-based; details: HL-60, 72 h
KB [3] = experiment: Antitumor activity against human KB cells incubated for 72 hrs by MTT assay; assay type: functional, cell-based
DLD-1 [4] = experiment: Antitumor activity against human DLD1 cells incubated for 72 hrs by MTT assay; assay type: functional, cell-based; details: DLD-1, 72 h
HT-1080 [5] = experiment: Antitumor activity against human HT1080 cells incubated for 72 hrs by MTT assay; assay type: functional, cell-based; details: HT-1080, 72 h
P388 [6] = experiment: Antitumor activity against mouse P388 cells incubated for 72 hrs by MTT assay; assay type: functional, cell-based; details: P388, 72 h
B16-F10 [7] = experiment: Antitumor activity against mouse B16F10 cells incubated for 72 hrs by MTT assay; assay type: functional, cell-based; details: B16-F10, 72 h
MCF7 [8] = experiment: Antitumor activity against human MCF7 cells incubated for 72 hrs by MTT assay; assay type: functional, cell-based; details: MCF7, 72 h
NUGC-3 [9] = experiment: Antitumor activity against human NUGC3 cells incubated for 72 hrs by MTT assay; assay type: functional, cell-based; details: NUGC-3, 72 h
MCF7 [10] = experiment: Antitumor activity against human MCF7 cells at 0.5 uM incubated for 72 hrs by MTT assay; assay type: functional, cell-based
HL-60 [11] = experiment: Antitumor activity against human HL60 cells at 0.5 uM incubated for 72 hrs by MTT assay; assay type: functional, cell-based
KB [12] = experiment: Antitumor activity against human KB cells at 0.5 uM incubated for 72 hrs by MTT assay; assay type: functional, cell-based
DLD-1 [13] = experiment: Antitumor activity against human DLD1 cells at 0.5 uM incubated for 72 hrs by MTT assay; assay type: functional, cell-based
HT-1080 [14] = experiment: Antitumor activity against human HT1080 cells at 0.5 uM incubated for 72 hrs by MTT assay; assay type: functional, cell-based
NUGC-3 [15] = experiment: Antitumor activity against human NUGC3 cells at 0.5 uM incubated for 72 hrs by MTT assay; assay type: functional, cell-based
P388 [16] = experiment: Antitumor activity against mouse P388 cells at 0.5 uM incubated for 72 hrs by MTT assay; assay type: functional, cell-based
B16-F10 [17] = experiment: Antitumor activity against mouse B16F10 cells at 0.5 uM incubated for 72 hrs by MTT assay; assay type: functional, cell-based

Molecule	CC50 at 24 h [1] [µM]	IC50 (HL-60 [2]) [µM]	IC50 (KB [3]) [µM]	IC50 (DLD-1 [4]) [µM]	IC50 (HT-1080 [5]) [µM]	IC50 (P388 [6]) [µM]	IC50 (B16-F10 [7]) [µM]	IC50 (MCF7 [8]) [µM]	IC50 (NUGC-3 [9]) [µM]	Activity (MCF7 [10])	Activity (HL-60 [11])	Activity (KB [12])	Activity (DLD-1 [13])	Activity (HT-1080 [14])	Activity (NUGC-3 [15])	Activity (P388 [16])	Activity (B16-F10 [17])
COc1ccc(-c2cn(Cc3ccccc3)nn2)cc1	> 100	> 100	86.6	139	146	83.8	88.5	231	158	–	–	–	–	–	–	–	–
FC(F)(F)c1ccc(-c2cn(Cc3ccccc3)nn2)cc1	> 100	171	60.2	74.3	57.7	17.5	35.4	162	81	–	–	–	–	–	–	–	–
C1=C(c2cn(Cc3ccccc3)nn2)CCCC1	> 100	171	> 100	> 100	219	49.6	45.5	> 100	> 100	–	–	–	–	–	–	–	–
Cc1ccc(-c2cn(Cc3ccccc3)nn2)cc1	> 100	> 100	79.5	102	84.4	94.1	66.4	253	129	–	–	–	–	–	–	–	–
c1ccc(Cn2cc(-c3ccccc3)nn2)cc1	> 100	> 100	> 100	> 100	651	99.1	96.1	490	836	–	–	–	–	–	–	–	–
CCCCc1cn(Cc2ccccc2)nn1	> 100	> 100	> 100	> 100	> 100	217	421	> 100	> 100	–	–	–	–	–	–	–	–
1-Benzyl-4-(p-tolyl)-5-(diphenylstibano)-1H-1,2,3-triazole	–	–	–	–	–	–	–	–	–	Active	Active	Active	Active	Active	Active	Active	Active
